From ChEMBL document CHEMBL4177628, “Discovery of a class of diheteroaromatic amines as orally bioavailable CDK1/4/6 inhibitors” (Bioorg Med Chem Lett, 2017)

Key:
[1] = biological target: Cyclin-dependent kinase 6 (Homo sapiens, UniProt Q00534); experiment: Inhibition of CDK6 (unknown origin) using U-light as substrate preincubated for 1 hr followed by EDTA addition measured after 1 hr by LANCE Ultra kinase assay
[2] = biological target: Cyclin-dependent kinase 4 (Homo sapiens, UniProt P11802); experiment: Inhibition of CDK4 (unknown origin) using U-light as substrate preincubated for 1 hr followed by EDTA addition measured after 1 hr by LANCE Ultra kinase assay
[3] = biological target: Cyclin-dependent kinase 1 (Homo sapiens, UniProt P06493); experiment: Inhibition of CDK1 (unknown origin) using U-light as substrate preincubated for 1 hr followed by EDTA addition measured after 1 hr by LANCE Ultra kinase assay
COLO 205 [4] = experiment: Antiproliferative activity against human COLO205 cells after 96 hrs by CCK-8 assay; format: functional, cell-based; details: COLO 205, 96 h
COLO 205 [5] = experiment: Antitumor activity against human COLO205 cells xenografted in nude BALB/c mouse assessed as tumor volume at 100 mg/kg, po administered once daily for 3 weeks measured twice per week relative to control; format: functional
[6] = Cmax in ICR mouse at 1 mg/kg, iv; format: ADME, organism-based; parameters: dose 1 mg/kg, route intravenous; details: in vivo
[7] = AUC in ICR mouse at 1 mg/kg, iv; format: ADME, organism-based; details: in vivo
[8] = Clearance in ICR mouse at 1 mg/kg, iv; format: ADME, organism-based; details: in vivo
[9] = Volume of distribution at steady state in ICR mouse at 1 mg/kg, iv; format: ADME, organism-based; details: in vivo, read-out: Vdss
[10] = Half life in ICR mouse at 1 mg/kg, iv; format: ADME, organism-based; details: in vivo
[11] = Oral bioavailability in ICR mouse at 5 mg/kg; format: ADME, organism-based; details: in vivo
[12] = AUC in ICR mouse at 5 mg/kg, po; format: ADME, organism-based; details: in vivo
COLO 205 [13] = experiment: Antitumor activity against human COLO205 cells xenografted in nude BALB/c mouse assessed as tumor volume at 25 mg/kg, po administered once daily for 3 weeks measured twice per week relative to control relative to control; format: functional
COLO 205 [14] = experiment: Antitumor activity against human COLO205 cells xenografted in nude BALB/c mouse assessed as tumor volume administered once daily for 3 weeks measured twice per week relative to control; format: functional
Mus musculus = experiment: Toxicity in nude BALB/c mouse xenografted with human COLO205 cells assessed as change in body weight at 25 to 100 mg/kg, po administered once daily for 3 weeks; format: organism-based; details: in vivo, 504 h

Chain of Cyclin-dependent kinase 6 (Q00534 whole entry): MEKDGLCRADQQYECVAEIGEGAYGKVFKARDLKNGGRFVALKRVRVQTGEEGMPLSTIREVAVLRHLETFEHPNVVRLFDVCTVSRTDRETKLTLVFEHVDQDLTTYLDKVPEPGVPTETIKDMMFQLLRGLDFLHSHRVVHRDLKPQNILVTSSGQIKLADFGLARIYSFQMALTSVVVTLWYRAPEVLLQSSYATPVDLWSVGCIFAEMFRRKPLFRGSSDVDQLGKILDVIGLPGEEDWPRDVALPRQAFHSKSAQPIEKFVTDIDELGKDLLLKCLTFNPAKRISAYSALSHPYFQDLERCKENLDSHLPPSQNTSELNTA
Chain of Cyclin-dependent kinase 4 (P11802 whole entry): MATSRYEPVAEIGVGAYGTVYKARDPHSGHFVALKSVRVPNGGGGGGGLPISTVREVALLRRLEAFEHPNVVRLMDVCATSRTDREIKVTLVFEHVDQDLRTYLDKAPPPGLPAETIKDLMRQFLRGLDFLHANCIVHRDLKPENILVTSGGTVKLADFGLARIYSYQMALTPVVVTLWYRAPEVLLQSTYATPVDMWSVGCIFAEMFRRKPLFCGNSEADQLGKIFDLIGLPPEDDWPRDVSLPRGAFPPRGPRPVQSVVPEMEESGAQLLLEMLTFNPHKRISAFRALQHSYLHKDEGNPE
Chain of Cyclin-dependent kinase 1 (P06493 whole entry): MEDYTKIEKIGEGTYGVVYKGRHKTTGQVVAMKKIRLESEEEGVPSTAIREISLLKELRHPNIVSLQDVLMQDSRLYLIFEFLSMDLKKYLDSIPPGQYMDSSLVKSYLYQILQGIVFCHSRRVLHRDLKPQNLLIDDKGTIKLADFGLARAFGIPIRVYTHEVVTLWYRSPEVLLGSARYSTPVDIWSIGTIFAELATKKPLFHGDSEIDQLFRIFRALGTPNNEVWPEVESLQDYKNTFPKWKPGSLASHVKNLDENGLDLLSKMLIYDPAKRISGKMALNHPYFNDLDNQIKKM

| IC50 [1] | IC50 [2] | IC50 [3] | IC50 (COLO 205 [4]) | SMILES | other results |
| --- | --- | --- | --- | --- | --- |
| 2.2 nM | 2.9 nM | 103 nM | 110 nM | Cc1nc2c(F)cc(-c3cc(Nc4cnc(CN5CCN(CC6CC6)CC5)cn4)ncn3)cc2n1C(C)C |  |
| 5.8 nM | 5.6 nM | 150 nM | 530 nM | Cc1nc2c(F)cc(-c3cc(Nc4cnc(CN5CCN(CC(F)(F)F)CC5)cn4)ncn3)cc2n1C(C)C |  |
|  |  |  | 460 nM | CCN1CCN(Cc2ccc(Nc3ncc(F)c(-c4cc(F)c5nc(C)n(C(C)C)c5c4)n3)nc2)CC1 [ABEMACICLIB] | T/C (COLO 205 [5]): 3.95% |
|  | 13.8 nM | 2430 nM | 520 nM | CCN1CCN(Cc2ccc(Nc3cc(-c4cc(F)c5nc(C)n(C(C)C)c5c4)ncn3)nn2)CC1 |  |
| 4.4 nM | 3.1 nM | 412 nM | 260 nM | CCN1CCN(Cc2ccc(Nc3cc(-c4cc(F)c5nc(C)n(C(C)C)c5c4)ncn3)nc2)CC1 |  |
|  | 5160 nM |  |  | CCN1CCN(Cc2ncc(Nc3cc(-c4cc(F)c5nc(C)n(C(C)C)c5c4)ncn3)cn2)CC1 |  |
| 23.6 nM | 5.2 nM | 801 nM | 340 nM | CCN1CCN(Cc2ccc(Nc3cc(-c4cc(F)c5nc(C)n(C(C)C)c5c4)ccn3)nn2)CC1 |  |
|  | 283 nM |  | 5600 nM | CCN1CCN(Cc2cnc(Nc3ncnc(-c4cc(F)c5nc(C)n(C(C)C)c5c4)c3F)cn2)CC1 |  |
|  | 35.9 nM | 20200 nM | 3740 nM | CCN1CCN(Cc2cnc(Nc3cc(-c4cc(F)c5nc(C)n(C(C)C)c5c4)ncn3)nc2)CC1 |  |
| 1.6 nM | 3.7 nM | 140 nM | 140 nM | COCCN1CCN(Cc2cnc(Nc3cc(-c4cc(F)c5nc(C)n(C(C)C)c5c4)ncn3)cn2)CC1 |  |
| 2.7 nM | 1.5 nM | 136 nM | 210 nM | CCN1CCN(Cc2cnc(Nc3cc(-c4cc(F)c5nc(C)n(C(C)C)c5c4)ncn3)cn2)CC1 | Cmax [6]: 998 ng/mL; AUC [7]: 571 ng·h/mL; clearance [8]: 20.8 to 28.8 mL/min/kg; Vd [9]: 0.57 L/kg; half-life [10]: 1.6 h; bioavailability [11]: 89.3%; AUC [12]: 2550 ng·h/mL; T/C (COLO 205 [5]): 12.37%; T/C (COLO 205 [13]): 54.21%; Activity (COLO 205 [14]): Dose-dependent effect; Activity (Mus musculus): Non-Toxic |
| 1.6 nM | 2.1 nM | 35.8 nM | 50 nM | CCN1CCN(Cc2cnc(Nc3cc(-c4cc(F)c5nc(C)n(C(C)C)c5c4)ccn3)cn2)CC1 |  |
| 4 nM | 8.8 nM | 231 nM | 460 nM | CCN1CCC(Oc2cnc(Nc3cc(-c4cc(F)c5nc(C)n(C(C)C)c5c4)ncn3)cn2)CC1 |  |
| 2.3 nM | 1.6 nM | 97.2 nM | 140 nM | Cc1nc2c(F)cc(-c3cc(Nc4cnc(CN5CCN(C(C)C)CC5)cn4)ncn3)cc2n1C(C)C |  |
|  | 18.3 nM | 1410 nM | 1510 nM | CCN1CCC(C(C)c2cnc(Nc3cc(-c4cc(F)c5nc(C)n(C(C)C)c5c4)ncn3)cn2)CC1 (centres undefined) |  |
|  | 12.1 nM | 1670 nM | 630 nM | CCN1CCN(Cc2ccc(Nc3cc(-c4cc(F)c5nc(C)n(C(C)C)c5c4)c(F)cn3)nn2)CC1 |  |
| 2.9 nM | 2.9 nM | 301 nM | 140 nM | CCN1CCN(Cc2ccc(Nc3cc(-c4cc(F)c5nc(C)n(C(C)C)c5c4)ccn3)nc2)CC1 |  |
| 1.6 nM | 1.6 nM | 44 nM | 40 nM | CCN1CCN(Cc2cnc(Nc3cc(-c4cc(F)c5nc(C)n(C(C)C)c5c4)c(F)cn3)cn2)CC1 | Cmax [6]: 514 ng/mL; AUC [7]: 425 ng·h/mL; clearance [8]: 37.6 mL/min/kg; Vd [9]: 6.44 L/kg |
| 1.8 nM | 2.2 nM | 101 nM | 160 nM | Cc1nc2c(F)cc(-c3cc(Nc4cnc(CN5CCN(C6CCCC6)CC5)cn4)ncn3)cc2n1C(C)C |  |
| 2.9 nM | 2.4 nM | 134 nM | 320 nM | CCN1CCC(Cc2cnc(Nc3cc(-c4cc(F)c5nc(C)n(C(C)C)c5c4)ncn3)cn2)CC1 |  |
